The results in this text go back to ChEMBL document CHEMBL2040731, “Synthesis and anti-HIV activity of lupane and olean-18-ene derivatives. Absolute configuration of 19,20-epoxylupanes by VCD” (J Nat Prod, 2012).

Each structure is given as a SMILES string. Active and inactive are the calls of the source. No cut-off for these calls is given here.

The first test concerns HeLa. In words: Inhibition of R5-tropic HIV1 envelope glycoprotein-mediated cell-cell fusion between viral envelope expressing human virus-infected HeLa ADA cells to human HeLa P5 cells at 5 uM after 16 hrs by beta-galactosidase reporter gene assay using chemiluminescence method. In kind it is cell-based. The note with it: Human immunodeficiency virus 1.
Turning to `C=C(C)[C@@H]1CC[C@]2(C)CC[C@]3(C)[C@H](CC[C@@H]4[C@@]5(C)CC/C(=N\O)C(C)(C)[C@@H]5CC[C@]43C)[C@@H]12`, the inhibition – broadly, the share of the control response that was lost under treatment – came to 7%.
Same read-out and setting: under `C=C(C)[C@@H]1CC[C@]2(C)CC[C@]3(C)[C@H](CC[C@@H]4[C@@]5(C)CCC(=O)C(C)(C)[C@@H]5CC[C@]43C)[C@@H]12` stands “inactive”; under `CC(=O)O[C@H]1CC[C@]2(C)[C@H]3CC[C@@H]4[C@]56O[C@H]5C(C)(C)CC[C@]6(C)CC[C@@]4(C)[C@]3(C)CC[C@H]2C1(C)C`, “inactive”; under `C=C(C=O)[C@@H]1CC[C@]2(C)CC[C@]3(C)[C@H](CC[C@@H]4[C@@]5(C)C=CC(=O)C(C)(C)[C@@H]5CC[C@]43C)[C@@H]12`, 28%.
On the same count and under the same terms, under `CC(=O)O[C@H]1CC[C@]2(C)[C@H]3CC[C@@H]4[C@H]5[C@H]([C@@]6(C)CO6)CC[C@]5(C)CC[C@@]4(C)[C@]3(C)CC[C@H]2C1(C)C` stands 26%; under `C=C(C)[C@@H]1CC[C@]2(C)CC[C@]3(C)[C@H](CC[C@@H]4[C@@]5(C)CC[C@H](O)C(C)(C)[C@@H]5CC[C@]43C)[C@@H]12`, “inactive”.
Same read-out and setting: the value for `C=C(C)[C@@H]1CC[C@]2(CO)CC[C@]3(C)[C@H](CC[C@@H]4[C@@]5(C)CC[C@H](O)C(C)(C)[C@@H]5CC[C@]43C)[C@@H]12` was 17%; that for `C=C(C)[C@@H]1CC[C@]2(C)CC[C@]3(C)[C@H](CC[C@@H]4[C@@]5(C)CC[C@H](OC(C)=O)C(C)(C)[C@@H]5CC[C@]43C)[C@@H]12` was 31%; that for `CC1(C)C=C2[C@H]3CC[C@@H]4[C@@]5(C)CC[C@H](O)C(C)(C)[C@@H]5CC[C@@]4(C)[C@]3(C)CC[C@@]2(C)CC1` was “inactive”.
Consider `C=C(C=O)[C@@H]1CC[C@]2(C)CC[C@]3(C)[C@H](CC[C@@H]4[C@@]5(C)CC[C@H](O)C(C)(C)[C@@H]5CC[C@]43C)[C@@H]12`, for which the inhibition entry is “inactive”.
In the case of `C=C(C=O)[C@@H]1CC[C@]2(CO)CC[C@]3(C)[C@H](CC[C@@H]4[C@@]5(C)CC[C@H](O)C(C)(C)[C@@H]5CC[C@]43C)[C@@H]12`, the inhibition is 26%.
The same measure, in the same setting: the value for `C=C(C=O)[C@@H]1CC[C@]2(C)CC[C@]3(C)[C@H](CC[C@@H]4[C@@]5(C)CC[C@H](OC(C)=O)C(C)(C)[C@@H]5CC[C@]43C)[C@@H]12` was 41%.

In a further test the test system is HeLa. In words: Inhibition of X4-tropic HIV1 envelope glycoprotein-mediated cell-cell fusion between viral envelope expressing human virus-infected HeLa ADA cells to human HeLa P5 cells at 5 uM after 16 hrs by beta-galactosidase reporter gene assay using chemiluminescence method. Format: cell-based. The note with it: Human immunodeficiency virus 1. A general note: A reporter such as luciferase makes a cellular process visible.
Turning to `C=C(C)[C@@H]1CC[C@]2(C)CC[C@]3(C)[C@H](CC[C@@H]4[C@@]5(C)CC/C(=N\O)C(C)(C)[C@@H]5CC[C@]43C)[C@@H]12`, the inhibition is 23%.
Still for that read-out and setting: the value for `C=C(C)[C@@H]1CC[C@]2(C)CC[C@]3(C)[C@H](CC[C@@H]4[C@@]5(C)CCC(=O)C(C)(C)[C@@H]5CC[C@]43C)[C@@H]12` was “inactive”; that for `CC(=O)O[C@H]1CC[C@]2(C)[C@H]3CC[C@@H]4[C@]56O[C@H]5C(C)(C)CC[C@]6(C)CC[C@@]4(C)[C@]3(C)CC[C@H]2C1(C)C` was “inactive”.
In the case of `C=C(C=O)[C@@H]1CC[C@]2(C)CC[C@]3(C)[C@H](CC[C@@H]4[C@@]5(C)C=CC(=O)C(C)(C)[C@@H]5CC[C@]43C)[C@@H]12`, the inhibition was 44%.
Still for that read-out and setting: the value for `CC(=O)O[C@H]1CC[C@]2(C)[C@H]3CC[C@@H]4[C@H]5[C@H]([C@@]6(C)CO6)CC[C@]5(C)CC[C@@]4(C)[C@]3(C)CC[C@H]2C1(C)C` was 6%; that for `C=C(C)[C@@H]1CC[C@]2(C)CC[C@]3(C)[C@H](CC[C@@H]4[C@@]5(C)CC[C@H](O)C(C)(C)[C@@H]5CC[C@]43C)[C@@H]12` was “inactive”; that for `C=C(C)[C@@H]1CC[C@]2(CO)CC[C@]3(C)[C@H](CC[C@@H]4[C@@]5(C)CC[C@H](O)C(C)(C)[C@@H]5CC[C@]43C)[C@@H]12` was 34%.
Same read-out and setting: under `C=C(C)[C@@H]1CC[C@]2(C)CC[C@]3(C)[C@H](CC[C@@H]4[C@@]5(C)CC[C@H](OC(C)=O)C(C)(C)[C@@H]5CC[C@]43C)[C@@H]12` stands 15%.
The same measure, in the same setting: the value for `CC1(C)C=C2[C@H]3CC[C@@H]4[C@@]5(C)CC[C@H](O)C(C)(C)[C@@H]5CC[C@@]4(C)[C@]3(C)CC[C@@]2(C)CC1` was “inactive”.
On to `C=C(C=O)[C@@H]1CC[C@]2(C)CC[C@]3(C)[C@H](CC[C@@H]4[C@@]5(C)CC[C@H](O)C(C)(C)[C@@H]5CC[C@]43C)[C@@H]12`, for which the inhibition entry was “inactive”.
Regarding `C=C(C=O)[C@@H]1CC[C@]2(CO)CC[C@]3(C)[C@H](CC[C@@H]4[C@@]5(C)CC[C@H](O)C(C)(C)[C@@H]5CC[C@]43C)[C@@H]12`, the inhibition worked out at 10%.
On the same count and under the same terms, the value for `C=C(C=O)[C@@H]1CC[C@]2(C)CC[C@]3(C)[C@H](CC[C@@H]4[C@@]5(C)CC[C@H](OC(C)=O)C(C)(C)[C@@H]5CC[C@]43C)[C@@H]12` was 6%.
